Key:
[1] = test system: canine cutaneous mastocytoma cells; assay: Toxin response of mast cells (mastoparan, Streptolysin O, UVB); type: cell-based; conditions: preincubation 10 and 100 μmol, compared with native FA
Experimental: In order to determine membrane stabilizing and anticytotoxic properties of nitrated fatty acids, an in vitro model utilizing canine cutaneous mastocytoma cells was chosen. Cells were cultured according to standard procedure. Cytotoxic effects were quantified by measuring not only by Ca^2+ influx, histamine, and TNFα release, but also by using the MTT assay. Cell suspensions were incubated with 0.9% saline, one of the nitrocarboxylic acids as listed in table 1 or the respective native fatty acid as to achieve a final concentration of 10 and 100 μmol which was given to the medium 15 min before toxin application.
Mastoparan suspended in a buffer solution was added to the preincubated mast cell suspensions to achieve a final concentration of 10 or 30 μmol, respectively. Measurements were performed after 1 hour incubation time. […] Preincubation of mast cells with nitrated fatty acids reduced the effects on Ca^2+ influx, histamine release, and apoptosis induction in a dose-dependent manner, with an almost complete absence of apoptosis at a concentration of 100 μmol.
Streptolysin O was given to preincubated suspensions to achieve a final concentration of 500 ng/ml. Measurements were performed after 2 hours. Releases of histamine and TNFα in the suspensions were measured. After saline preincubation, a significant release of histamine and TNFα was observed.
Cell plates were exposed to a single dose (250 mJ/cm2) of UVB using a lamp (Saalmann, Herford, Germany) emitting most of its energy within the UVB range (295 to 315 nm). Tryptase levels in the supernatants were determined after 30 minutes, and concentrations of TNFα after 60 minutes. After preincubation with saline, there was a marked increase of tryptase. Preincubation with native fatty acids led to a dose-dependent reduction of tryptase release, which was significant at the lower irradiation dose but not after exposure to a high irradiation dose. […] For all nitrated fatty acids that were used the results were mostly inside the same range. Relative differences can be represented as follows: […]

Cardiomyocytes = assay: TGF-β1-inducible formation of extracellular matrix in cardiomyocytes under shear stress; type: cell-based; conditions: 10-100 μmol, shear stress up to 100 dyn/cm^2; compared with native FA
Experimental: Characterizing features of the fibrous remodelling in the heart are accentuated expression and deposition of extracellular matrix proteins (ECM). This has been attributed to increased mechanical forces via autocrine release of transforming growth factor-beta (TGF-beta). […] An established cell culture model was used to investigate the effect of shear stress on cardiomyocytes. Cardiomyocytes were cultured and transferred to a matrigel substrate. Plates with confluenced cells were placed into a shear force injury device (SFID). The SFID design is based on a cone-and-plate construction which is a well-defined rheological model in which a homogenously distributed laminar flow over the surface of the cells is generated by a rotating cone. The conical surface is positioned above a stationary flat plate and the fluid medium between these two surfaces is set in motion by rotating the cone to create a uniform level of fluid shear stress throughout the entire surface of the cells cultured on the coverslips.
A peak shear stress of 100 dyn/cm^2 could be applied without significant cell detachment enabling a maximum injury severity of 46%. Cells were exposed to FCS 1% without or with nitro-fatty acid, and the corresponding native fatty acid in a dosage range between 10 μmol and 100 μmol, 10 seconds before shear force application. Shear force peaks up to 100 dyn/cm^2 with a duration of 30 msec each with a repetition frequency of 60/minute were applied for 5, 10, 30 and 60 minutes. Thereafter the cell plates were washed and placed in FCS 1% for 24 hrs. The supernatant of the shear force investigation as well as that of the following culture phase was analysed. It could be shown that TGF-beta and ECM proteins (collagen I, fibronectin, laminin, elastin) increased after treatment in the control groups.

[2] = test system: Human peripheral blood mononuclear cells (PBMCs); assay: Adhesion of serum proteins and monocyte activation induced by coated silicone; type: cell-based; conditions: dip-coated silicone, PBMCs 3 days; compared with native FA
Experimental: In order to determine the effect of coating implant materials with nitro fatty acids to reduce adsorption of adhesion molecules and monocyte activation, sterile silicone sheets were out in small pieces and coated with respective nirocarboxylic acid and the corresponding native fatty acids by dip coating. Uncoated silicone pieces served as controls. For each fatty acid two sets of silicone pieces were bathed in freshly drawn human serum for 1 hour at 37° C., and another two sets were bathed in saline solutions. One set of both coated and uncoated pieces was analyzed immediately for adhesion proteins and the other set was placed in 96-well plates after rinsing the silicone pieces. Human peripheral blood mononuclear cells (PBMCs), isolated from three healthy subjects, were added to each well. Wells were incubated for 3 days under standard conditions. Culture supernatants were assayed for IL-1beta, IL-6, IL-8, and chemoattractant protein 1 (MCP-1) levels at the start and end of experiments.
Before analyzing the silicone pieces for protein adsorption, they were bathed in saline for 5 minutes. Thereafter, one side was rinsed with saline as performed for both sides in the set used for culturing. There was marked adsorption of fibrinogen and […] C5b-9 on the uncoated silicone. […] No protein was found on the surface of the nitro fatty acid-coated sample that was rinsed, thus, indicating the weak adherence of serum proteins.

[3] = test system: female Sprague-Dawley rats; assay: Fibrogenesis in an in-vivo model of soft implant implantation; design: species or system rat; conditions: subcutaneous implants, 120 days, compared with native FA
Experimental: Silicone bag-gel miniprostheses (POLYTECH Health & Aesthetics GmbH, Dieburg, Germany) having a diameter of 2 cm and a volume of approximately 2 ml were used. […] The experimentally used implant models had two small tags which allowed the implants to be suspended during the coating procedures.
Each implant was treated in the following manner: cleaning by sonication for 2 min each in the following sequence of solvents: acetone, toluene, acetone, ethanol, and water. Implants were exposed to Piranha solution for 60 min and rinsed with deionized water. They were then immersed in a 20% aqueous solution of ammonium fluoride for 45 min to obtain a hydrogen-passivated Si surface. The ammonium fluoride solution was sparged with nitrogen for 15 min to remove dissolved oxygen. Prepared implants were transferred to a glass chamber filled with an inert atmosphere where they were suspended so that no part of their surface came in contact with the container. The container was filled with a 1-hexadecene solution and heated at 150° C. at a pressure of 2 Torr for 120 min. Prepared implants were cleaned in the following sequence of solvents: acetone, ethanol, and water. Formation of self assembled monolayer was controlled by measuring surface hydrophobicity; the contact angle was about 105°. Dry implants suspended in the container were then bathed in an ethanolic solution of oleic acid or nitro-oleic acid at a temperature of 40° C. for 120 min. Thereafter, the solution was allowed to run out slowly through an outlet at the bottom of the container. The emptying container was filled with inert gas in which the samples were maintained for 24 hours. Then samples were bathed three times in an ethanolic solution, followed by a final rinsing with sterile water. After drying, the container with the prepared implant was sterilized using ethylene oxide and stored at 20° C.
For in vivo testing, 24 uncoated and 24 coated implants were investigated in 24 female Sprague-Dawley rats (190-230 g). In the anesthetized animals, bilateral dorsal pockets in the subcutaneum were created by blunt dissection through paired paravertebral incisions. Each animal received one coated implant and one control implant on opposite sides, alternating sides on successive animals. Animals were housed and fed according to institutional standards for 120 days. Animals were sacrificed with chloroform. The implants and the adhering tissue were extracted by en bloc resection. The implants were cannulated and the liquid silicone gel was replaced by paraffin. Thereafter, the complete tissue block was prepared by standard means of histology, and stained with H&E or Masson's trichrome.

SMILES	Relative differences: effect on toxin response of mast cells [1]	Relative efficacy to suppress TGF-beta and ECM proteins in cardiomyocytes (Cardiomyocytes)	Relative effect on serum protein adhesion and monocyte activation [2]	Relative effect of surface coating on fibrogenesis around silicone implants [3]
CC/C=C\C/C=C\C/C=C(/CCCCCCCC(=O)O)[N+](=O)[O-] [compound 6, 9-nitro-all-cis-9-12,15-octadecatrienoic acid]	++	+++	+	++
CCCCCCCC/C=C(/CCCCCCCCCCCCCC(=O)O)[N+](=O)[O-] [compound 8, 15-nitro-cis-15-tetracosenoic acid]	+	+	+	+
CCCCCCCC/C=C(\CCCCCCCC(=O)O)[N+](=O)[O-] [compound 9, 9-nitro-trans-oleic acid]	++	+	+	+
CCCCC=C(C=CC=CCCCCCCCC(=O)O)[N+](=O)[O-] [compound 11, 13-nitro-octadeca-9,11,13-trienoic acid]	+	+	+	+
CCCCCC=CCC=C(CC=CC/C=C\CCCC(=O)O)[N+](=O)[O-] [compound 22, 11-nitro-cis-5,8,11,14-eicosatetraenoic acid]	++	++	+	++
